Measured values taken from article PMC5693303 (Journal of medicinal chemistry, 2016).
Marks after values point to notes of the source that are not given here.

Assays:
KOR [1] = target: KOR (Cavia porcellus, UniProt P41144); test: GPI/LMMP assay, inhibition of electrically stimulated muscle contraction; type: cell-based, guinea pig
KOR [2] = target: KOR (Homo sapiens, UniProt P41145); test: [^35S]GTPγS assay, agonist mode; type: biochemical; details: 10 µM, KOR-CHO cells, compared to vehicle
hMOR = hMOR (Homo sapiens, UniProt P35372); test: Radioligand competition binding, [^3H]diprenorphine or [^3H]DAMGO; details: [^3H]diprenorphine, Kd = 2.81 nM; NC = no competition
KOR [3] = target: KOR (Mus musculus, UniProt P33534); test: Tail flick test, pretreatment before KOR agonist 17; type: in vivo, mice; details: 10 µg in 5 µL l.p., 15 min before 17 (10 µg)
[4] = Tail flick test, 52 °C water, compound alone

Sequence of KOR (Homo sapiens, UniProt P41145) (P41145 whole entry): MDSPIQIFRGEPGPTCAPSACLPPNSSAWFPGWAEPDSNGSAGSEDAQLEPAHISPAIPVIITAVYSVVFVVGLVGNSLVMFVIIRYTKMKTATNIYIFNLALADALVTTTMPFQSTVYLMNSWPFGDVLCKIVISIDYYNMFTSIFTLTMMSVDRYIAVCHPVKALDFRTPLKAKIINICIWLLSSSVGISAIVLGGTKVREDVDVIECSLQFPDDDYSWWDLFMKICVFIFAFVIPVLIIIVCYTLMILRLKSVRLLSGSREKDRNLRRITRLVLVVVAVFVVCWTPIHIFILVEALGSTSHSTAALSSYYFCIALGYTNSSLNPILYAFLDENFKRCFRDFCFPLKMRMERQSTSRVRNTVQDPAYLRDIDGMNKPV
Sequence of KOR (Cavia porcellus, UniProt P41144) (P41144 whole entry): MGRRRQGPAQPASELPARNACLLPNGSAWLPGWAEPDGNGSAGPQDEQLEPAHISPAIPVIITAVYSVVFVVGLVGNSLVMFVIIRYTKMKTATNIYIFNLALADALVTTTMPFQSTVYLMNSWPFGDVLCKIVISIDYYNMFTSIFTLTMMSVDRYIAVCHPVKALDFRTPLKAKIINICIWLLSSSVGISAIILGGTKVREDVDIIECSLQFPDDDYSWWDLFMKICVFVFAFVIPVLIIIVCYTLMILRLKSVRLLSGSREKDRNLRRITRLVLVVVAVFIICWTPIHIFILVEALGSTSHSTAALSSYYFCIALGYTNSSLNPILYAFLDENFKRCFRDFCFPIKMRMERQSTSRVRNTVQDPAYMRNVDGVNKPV
Sequence of KOR (Mus musculus, UniProt P33534) (P33534 whole entry): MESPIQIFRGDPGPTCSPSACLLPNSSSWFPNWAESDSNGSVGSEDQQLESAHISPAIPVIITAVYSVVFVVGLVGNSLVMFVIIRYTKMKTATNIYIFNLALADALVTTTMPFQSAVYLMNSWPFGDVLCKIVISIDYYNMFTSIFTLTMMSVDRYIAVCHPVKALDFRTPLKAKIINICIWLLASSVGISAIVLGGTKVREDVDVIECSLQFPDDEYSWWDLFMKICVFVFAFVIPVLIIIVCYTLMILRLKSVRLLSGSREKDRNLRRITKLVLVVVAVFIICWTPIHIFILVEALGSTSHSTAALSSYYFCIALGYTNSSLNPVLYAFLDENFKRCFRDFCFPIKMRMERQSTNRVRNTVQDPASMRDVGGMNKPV
Sequence of hMOR (P35372 whole entry): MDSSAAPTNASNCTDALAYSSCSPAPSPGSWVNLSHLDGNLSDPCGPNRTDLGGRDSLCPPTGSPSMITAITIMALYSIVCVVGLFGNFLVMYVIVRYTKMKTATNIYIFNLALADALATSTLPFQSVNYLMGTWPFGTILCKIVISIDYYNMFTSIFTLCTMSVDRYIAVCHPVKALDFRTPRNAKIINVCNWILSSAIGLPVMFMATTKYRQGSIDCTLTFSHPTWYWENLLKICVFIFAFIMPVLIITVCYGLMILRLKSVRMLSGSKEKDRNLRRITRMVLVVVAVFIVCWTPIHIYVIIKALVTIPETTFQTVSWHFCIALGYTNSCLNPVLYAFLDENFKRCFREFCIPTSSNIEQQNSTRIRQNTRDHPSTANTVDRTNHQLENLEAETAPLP

In the case of Ac-YGGFLRIRPK-NH2 [compound 5], the “percent of agonist activity” value (KOR [1]; 1 µM test compound, compared to average signal 3 min prior to drug) is reported as 0% ^b, the “agonist response in GPI/LMMP” value (KOR [1]; in words) is reported as “did not show significant responses” and the KOR activation (KOR [2]) is reported as “did not show KOR activation”.

In the case of Ac-YGPFLRIRPK-NH2 [compound 8], the Ki (hMOR) is reported as “no competition”.

With H-YGGFLRIRPK-NH2 [compound 3] the KOR activation (KOR [2]) was “significant activation”.

For H-YGPFLRIRPK-NH2 [compound 7], the “blockade of antinociceptive effect of 17” value (KOR [3]) was “significantly blocked”, the “elevation of TWL, % of max response” value ([4]; 10 µg in 5 µL i.t., 30 min) was 39.45 ± 6.95% and the “tail withdrawal latency (antinociceptive effect)” value ([4]; 0.1, 1.0 and 10 µg in 5 µL i.t., compared to vehicle) was “significantly elevated tail withdrawal latency”.
